One assay concerns PDX Model BL0269. Put plainly: drug-DNA adducts in PDX tumor by AMS. Format: in vivo, NSG mice. The source says: Female NSG mice (5-8 weeks of age, body weight: 20 to 25 g) were obtained from Jackson Laboratories (CA, USA). All animals were kept under pathogen-free conditions and were allowed to acclimatize for at least 4 days prior to any experiments. PDX models bearing the indicated patient derived xenografts were created by subcutaneous injection at the flank of 1 mm^3 tumor tissue. To establish multiple PDXs to allow efficacy studies with multiple drugs, PDXs from passage 2-4 were minced into 1 mm^3 sections and injected subcutaneously into multiple mice. At least 3 mice were used for each treatment group. Tumors were allowed to grow to at about 100 mm^3 before being assessed for drug sensitivity or the induction of DNA adducts by the administration of a microdose or a therapeutic dose of labeled drug. To assess tumor response to chemotherapy, cisplatin was administered at 2 mg/kg IV every 7 days for a total of 3 cycles, or gemcitabine was administered at 150 mg/kg IP every 7 days for a total of 4 cycles. G/C combination chemotherapy consisted of the simultaneous administration of both drugs using the schema described above. Tumor growth was assessed by measuring palpable tumors with a caliper and calculating tumor volume. Drug-DNA adduct frequencies were measured in tumor tissue collected 24 hours after intravenous injection of labeled drug and stored at −80° C. until DNA isolation. DNA was isolated using a modified Wizard procedure (Promega), quantitated by spectrophotometry, and then stored frozen at −20° C. until AMS analysis. Ten micrograms of DNA per sample was converted to graphite and measured by AMS for 14C quantification as previously described.
NSG mice bearing the indicated PDX tumors were injected with a microdose of ^14C-labeled carboplatin (FIG. 22A) or ^14C-labeled gemcitabine (FIG. 22B). The microdose of ^14C-labeled carboplatin was 0.375 mg/kg carboplatin, 50,000 dpm/g. The microdose of ^14C-labeled gemcitabine was 0.092 mg/kg gemcitabine, 1000 dpm/g. The doses of each drug administered to the mice were chosen to target 1 μM in plasma concentration of carboplatin and 0.3 μM in plasma concentration of gemcitabine. These plasma concentrations represent 1% of the approximate peak plasma concentration during human chemotherapy. Animals were sacrificed after 24 h and drug-DNA adduct frequency was determined from collected tumor tissue by AMS measurements of ^14C in tumor DNA. Carboplatin DNA-adduct levels correlate with PDX model sensitivity to cisplatin at 24 h after microdosing (FIG. 22A). Gemcitabine DNA-adduct levels correlate with PDX model sensitivity to gemcitabine at 24 h after microdosing (FIG. 22B). […] There is no significant difference in carboplatin-DNA monoadduct levels between the three resistant PDX models. […] We conclude that microdose induced carboplatin-DNA monoadducts predicts sensitivity to cisplatin chemotherapy, and microdose induced gemcitabine incorporation predicts sensitivity to gemcitabine chemotherapy.
In this example we test whether gemcitabine/carboplatin (G/Carbo) combination therapy has an effect on the formation of drug-DNA adducts in this synergistic tumor model. In FIG. 23A, NGS mice bearing BL0645 xenographs were administered via tail vein injection a therapeutic dose of [^14C]carboplatin alone or a therapeutic dose of [^14C]carboplatin in combination with a therapeutic dose of gemcitabine. Carboplatin-DNA monoadducts were measured in tumor tissue 24 h after dosing. A therapeutic dose of the combination [^14C]carboplatin plus unlabeled gemcitabine leads to a significant increase in carboplatin-DNA monoadduct level (94.84±16.02 versus 209.6±64.66 adducts per 10^8 nucleotides, p=0.032) compared to treatment with carboplatin alone. In FIG. 23B, the same experiment was conducted in which the mice received a therapeutic dose of [^14C]gemcitabine alone or a therapeutic dose of [^14C]gemcitabine in combination with a therapeutic dose of unlabeled carboplatin. […]

A further assay has as its system RT4. Put plainly: MTT assay IC50, bladder cancer cell line. It counts as cell-based. From the text:
(§1) If these diadducts are the predominant DNA lesion responsible for cell death, then the IC50 of the two drugs should be linearly related. Thus, we measured the IC50 of the six NSCLC cell lines from Example 2 to both cisplatin and carboplatin to determine if the sensitivity of these six NSCLC cell lines to the two drugs are correlated. We observed a statistically significant linear correlation of the cytotoxicity of these two drugs in the 6 cell lines used in this study (R^2=0.72, p=0.033, FIG. 9A) and also to six additional ATCC bladder cancer cell lines. (R^2=0.72, p=0.033), FIG. 9B).
Background: Tetrazolium assays rely on reduction of a dye to a coloured formazan, in cell work by metabolically active cells.

In the next assay the test system is HT1197. The assay is described as follows: MTT assay IC50, bladder cancer cell line. It counts as cell-based.
Description: as §1

The test system of the next assay is J82. The assay is described as follows: MTT assay IC50, bladder cancer cell line. Format: cell-based.
Description: as §1

A further assay has as its system TCCSUP. Put plainly: MTT assay IC50, bladder cancer cell line. It counts as cell-based.
Description: as §1

The subject of a further assay is T24. Put plainly: MTT assay IC50, bladder cancer cell line. Format: cell-based.
Description: as §1

Another assay relates to H23, H460, and H727. Put plainly: carboplatin-DNA monoadducts by AMS, average of sensitive NSCLC lines. Format: cell-based, human. The conditions noted are these: three most sensitive cell lines. Here is the method:
NSCLC cell lines were cultured to >90% confluence, dosed with [^14C]carboplatin, and subjected to DNA isolation and AMS analysis. 60 mm dishes were seeded at a density of 1×10^6 cells/dish and allowed to attach overnight in a 37° C. humidified atmosphere containing 5% CO2. At hour 0, cells were dosed with 1 μM (relevant microdose concentration) or 100 μM carboplatin (therapeutically relevant concentration), each comprising 0.3 μM [^14C]carboplatin (50,000 dpm/ml). Cells were incubated with [^14C]carboplatin for 4 h before washing and cultured with carboplatin-free medium to mimic the in vivo carboplatin half-life (1.3-6 hours) in patients. DNA was harvested from the cell lines at hours 0, 2, 4, 8 and 24 hours after initial dosing. Ten micrograms of DNA per sample was converted to graphite and measured by AMS for ^14C/total C quantification. Triplicate sets of AMS experiments were performed for each cell line and time point. The 14C/total C ratio was converted to 14C atoms per DNA base-pair according to the algorithm described herein to provide values of carboplatin-DNA monoadducts per 10^8 nucleotides. The data was plotted as carboplatin-DNA monoadducts per 10^8 nucleotide (nt) vs time (FIGS. 8A and 8B). There was a time-dependent increase in the carboplatin-DNA monoadduct concentration during the first 4 hours of incubation with therapeutic or microdosing carboplatin (FIGS. 8A and 8B). […]

The results in this text go back to US20200010910A1, “Cytotoxic Chemotherapy-Based Predictive Assays for Acute Myeloid Leukemia” (The Regents of The University of California, priority 2017, published 2020).

Structures are written as SMILES.

The term IC50 denotes the midpoint of a concentration-inhibition curve. On to `N.N.O=C([O-])C1(C(=O)[O-])CCC1.[Pt+2]` [carboplatin], for which, in the assay with PDX Model BL0269 (control experiment FIG. 23E, microdose single agent or G/Carbo combination), the Carboplatin-DNA monoadduct levels was 1.85±0.798 adducts per 10^8 nucleotides. In the assay on PDX Model BL0269 (microdose 0.375 mg/kg carboplatin, 24 h (FIG. 22A)), the “mean carboplatin-DNA monoadduct level” value is given as 1.77±0.706 adducts per 10^8 nucleotides. In addition, the IC50 in the assay with RT4 was 56.9 ± 11.2 µM; in the assay on HT1197, 84.5 ± 24.6 µM; in the assay with J82 it was 168 ± 19.9 µM; in the assay with TCCSUP, 91.5 ± 6.81 µM; in the assay on T24, 42.5 ± 6.99 µM. The “average area under curve (AUC) of carboplatin-DNA monoadducts” value in the assay with H23, H460, and H727 (microdosing) is recorded as 94.61±33.99 hr-monoadducts per 10^8 nt; with H23, H460, and H727 (therapeutic dosing), 9617.8±3172.7 hr-monoadducts per 10^8 nt.
